Results: US20130338106A1, “COMPOUNDS INHIBITING LEUCINE-RICH REPEAT KINASE ENZYME ACTIVITY” (priority 2011, published 2013)
Like-named read-outs stand apart in the source and are kept apart here.

Key:
Assay type in all cases: biochemical
MAPKAPK3 = target: T1, MAPKAPK3 (Homo sapiens, UniProt Q16644); test: ProfilerPro Kinase Selectivity, MAPKAPK3; settings: tested at 10 uM, read-out: percent inhibition of the kinase activity
T1 construct: purchased Caliper LifeSciences
Experimental: (§1) Kinome selectivity profiling was performed using two example compounds according to the manufacturer's instructions using Caliper LifeSciences' ProfilerPro Kinase Selectivity Assay Kits. Compounds prepared in Examples 1 and 7 were tested at 10 uM and data were recorded using the Caliper LabChip® EZ Reader™. Each compounds' percent inhibition of the kinase activity measured in this manner is reported in the following lists.

PRKCB1 = target: T2, PRKCB1 (Homo sapiens, UniProt P05771); test: ProfilerPro Kinase Selectivity, PRKCB1; settings: tested at 10 uM, read-out: percent inhibition of the kinase activity
T2 construct: purchased Caliper LifeSciences
Experimental: as §1

FGFR1 = target: T3, FGFR1 (Homo sapiens, UniProt P11362); test: ProfilerPro Kinase Selectivity, FGFR1; settings: tested at 10 uM, read-out: percent inhibition of the kinase activity
T3 construct: purchased Caliper LifeSciences
Experimental: as §1

PRKX = target: T4, PRKX (Homo sapiens, UniProt P51817); test: ProfilerPro Kinase Selectivity, PRKX; settings: tested at 10 uM, read-out: percent inhibition of the kinase activity
T4 construct: purchased Caliper LifeSciences
Experimental: as §1

CAMK1D = target: T5, CAMK1D (Homo sapiens, UniProt Q8IU85); test: ProfilerPro Kinase Selectivity, CAMK1D; settings: tested at 10 uM, read-out: percent inhibition of the kinase activity
T5 construct: purchased Caliper LifeSciences
Experimental: as §1

SGK = target: T6, SGK (Homo sapiens, UniProt O00141); test: ProfilerPro Kinase Selectivity, SGK; settings: tested at 10 uM, read-out: percent inhibition of the kinase activity
T6 construct: purchased Caliper LifeSciences
Experimental: as §1

CDK2 = target: T7, CDK2 (Homo sapiens, UniProt P24941); test: ProfilerPro Kinase Selectivity, CDK2; settings: tested at 10 uM, read-out: percent inhibition of the kinase activity
T7 construct: purchased Caliper LifeSciences
Experimental: as §1

PAK4 = target: T8, PAK4 (Homo sapiens, UniProt O96013); test: ProfilerPro Kinase Selectivity, PAK4; settings: tested at 10 uM, read-out: percent inhibition of the kinase activity
T8 construct: purchased Caliper LifeSciences
Experimental: as §1

IKKB = target: T9, IKKB (Homo sapiens, UniProt O14920); test: ProfilerPro Kinase Selectivity, IKKB; settings: tested at 10 uM, read-out: percent inhibition of the kinase activity
T9 construct: purchased Caliper LifeSciences
Experimental: as §1

CHK1 = target: T10, CHK1 (Homo sapiens, UniProt O14757); test: ProfilerPro Kinase Selectivity, CHK1; settings: tested at 10 uM, read-out: percent inhibition of the kinase activity
T10 construct: purchased Caliper LifeSciences
Experimental: as §1

CDK5/P25 = target: T11, CDK5/P25 (Homo sapiens, UniProt Q00535); test: ProfilerPro Kinase Selectivity, CDK5/P25; settings: tested at 10 uM, read-out: percent inhibition of the kinase activity
T11 construct: purchased Caliper LifeSciences
Experimental: as §1

PKACA = target: T12, PKACA (Homo sapiens, UniProt P17612); test: ProfilerPro Kinase Selectivity, PKACA; settings: tested at 10 uM, read-out: percent inhibition of the kinase activity
T12 construct: purchased Caliper LifeSciences
Experimental: as §1

PRKCQ = target: T13, PRKCQ (Homo sapiens, UniProt Q04759); test: ProfilerPro Kinase Selectivity, PRKCQ; settings: tested at 10 uM, read-out: percent inhibition of the kinase activity
T13 construct: purchased Caliper LifeSciences
Experimental: as §1

TEC = target: T14, TEC (Homo sapiens, UniProt P42680); test: ProfilerPro Kinase Selectivity, TEC; settings: tested at 10 uM, read-out: percent inhibition of the kinase activity
T14 construct: purchased Caliper LifeSciences
Experimental: as §1

LYNB = target: T15, LYNB (Homo sapiens, UniProt P07948); test: ProfilerPro Kinase Selectivity, LYNB; settings: tested at 10 uM, read-out: percent inhibition of the kinase activity
T15 construct: purchased Caliper LifeSciences
Experimental: as §1

EPHB2 = target: T16, EPHB2 (Homo sapiens, UniProt P29323); test: ProfilerPro Kinase Selectivity, EPHB2; settings: tested at 10 uM, read-out: percent inhibition of the kinase activity
T16 construct: purchased Caliper LifeSciences
Experimental: as §1

DYRK1B = target: T17, DYRK1B (Homo sapiens, UniProt Q9Y463); test: ProfilerPro Kinase Selectivity, DYRK1B; settings: tested at 10 uM, read-out: percent inhibition of the kinase activity
T17 construct: purchased Caliper LifeSciences
Experimental: as §1

MST1 = target: T18, MST1 (Homo sapiens, UniProt Q13043); test: ProfilerPro Kinase Selectivity, MST1; settings: tested at 10 uM, read-out: percent inhibition of the kinase activity
T18 construct: purchased Caliper LifeSciences
Experimental: as §1

MST2 = target: T19, MST2 (Homo sapiens, UniProt Q13188); test: ProfilerPro Kinase Selectivity, MST2; settings: tested at 10 uM, read-out: percent inhibition of the kinase activity
T19 construct: purchased Caliper LifeSciences
Experimental: as §1

RET V804L = target: T20, RET V804L (Homo sapiens, UniProt P07949, V804L); test: ProfilerPro Kinase Selectivity, RET V804L; settings: tested at 10 uM, read-out: percent inhibition of the kinase activity
T20 construct: purchased Caliper LifeSciences
Experimental: as §1

MAPKAPK2 = target: T21, MAPKAPK2 (Homo sapiens, UniProt P49137); test: ProfilerPro Kinase Selectivity, MAPKAPK2; settings: tested at 10 uM, read-out: percent inhibition of the kinase activity
T21 construct: purchased Caliper LifeSciences
Experimental: as §1

TRKC = target: T22, TRKC (Homo sapiens, UniProt Q16288); test: ProfilerPro Kinase Selectivity, TRKC; settings: tested at 10 uM, read-out: percent inhibition of the kinase activity
T22 construct: purchased Caliper LifeSciences
Experimental: as §1

BTK = target: T23, BTK (Homo sapiens, UniProt Q06187); test: ProfilerPro Kinase Selectivity, BTK; settings: tested at 10 uM, read-out: percent inhibition of the kinase activity
T23 construct: purchased Caliper LifeSciences
Experimental: as §1

BRSK2 = target: T24, BRSK2 (Homo sapiens, UniProt Q8IWQ3); test: ProfilerPro Kinase Selectivity, BRSK2; settings: tested at 10 uM, read-out: percent inhibition of the kinase activity
T24 construct: purchased Caliper LifeSciences
Experimental: as §1

LRRK2 = LRRK2 (Homo sapiens, UniProt Q5S007); test: ProfilerPro Kinase Selectivity, LRRK2; settings: read-out: percent inhibition of the kinase activity
Experimental: as §1, with “Reader™.” for “Reader™. Each compounds' percent inhibition of the kinase activity measured in this manner is reported in the following lists.”

C-TAK1 = target: T25, C-TAK1 (Homo sapiens, UniProt P27448); test: ProfilerPro Kinase Selectivity, C-TAK1; settings: tested at 10 uM, read-out: percent inhibition of the kinase activity
T25 construct: purchased Caliper LifeSciences
Experimental: as §1

PDGFRA D842V = target: T26, PDGFRA D842V (Homo sapiens, UniProt P16234, D842V); test: ProfilerPro Kinase Selectivity, PDGFRA D842V; settings: tested at 10 uM, read-out: percent inhibition of the kinase activity
T26 construct: purchased Caliper LifeSciences
Experimental: as §1

PRKCG = target: T27, PRKCG (Homo sapiens, UniProt P05129); test: ProfilerPro Kinase Selectivity, PRKCG; settings: tested at 10 uM, read-out: percent inhibition of the kinase activity
T27 construct: purchased Caliper LifeSciences
Experimental: as §1

ROCK2 = target: T28, ROCK2 (Homo sapiens, UniProt O75116); test: ProfilerPro Kinase Selectivity, ROCK2; settings: tested at 10 uM, read-out: percent inhibition of the kinase activity
T28 construct: purchased Caliper LifeSciences
Experimental: as §1

MARK4 = target: T29, MARK4 (Homo sapiens, UniProt Q96L34); test: ProfilerPro Kinase Selectivity, MARK4; settings: tested at 10 uM, read-out: percent inhibition of the kinase activity
T29 construct: purchased Caliper LifeSciences
Experimental: as §1

P38A/SAPK2A T106M = target: T30, P38A/SAPK2A T106M (Homo sapiens, UniProt Q16539, T106M); test: ProfilerPro Kinase Selectivity, P38A/SAPK2A T106M; settings: tested at 10 uM, read-out: percent inhibition of the kinase activity
T30 construct: purchased Caliper LifeSciences
Experimental: as §1

FGR = target: T31, FGR (Homo sapiens, UniProt P09769); test: ProfilerPro Kinase Selectivity, FGR; settings: tested at 10 uM, read-out: percent inhibition of the kinase activity
T31 construct: purchased Caliper LifeSciences
Experimental: as §1

PRKCZ = target: T32, PRKCZ (Homo sapiens, UniProt Q05513); test: ProfilerPro Kinase Selectivity, PRKCZ; settings: tested at 10 uM, read-out: percent inhibition of the kinase activity
T32 construct: purchased Caliper LifeSciences
Experimental: as §1

JAK2 = target: T33, JAK2 (Homo sapiens, UniProt O60674); test: ProfilerPro Kinase Selectivity, JAK2; settings: tested at 10 uM, read-out: percent inhibition of the kinase activity
T33 construct: purchased Caliper LifeSciences
Experimental: as §1

MELK = target: T34, MELK (Homo sapiens, UniProt Q14680); test: ProfilerPro Kinase Selectivity, MELK; settings: tested at 10 uM, read-out: percent inhibition of the kinase activity
T34 construct: purchased Caliper LifeSciences
Experimental: as §1

CAMK2G = target: T35, CAMK2G (Homo sapiens, UniProt Q13555); test: ProfilerPro Kinase Selectivity, CAMK2G; settings: tested at 10 uM, read-out: percent inhibition of the kinase activity
T35 construct: purchased Caliper LifeSciences
Experimental: as §1

BMX = target: T36, BMX (Homo sapiens, UniProt P51813); test: ProfilerPro Kinase Selectivity, BMX; settings: tested at 10 uM, read-out: percent inhibition of the kinase activity
T36 construct: purchased Caliper LifeSciences
Experimental: as §1

T26 sequence (P16234 24-1089 D842V): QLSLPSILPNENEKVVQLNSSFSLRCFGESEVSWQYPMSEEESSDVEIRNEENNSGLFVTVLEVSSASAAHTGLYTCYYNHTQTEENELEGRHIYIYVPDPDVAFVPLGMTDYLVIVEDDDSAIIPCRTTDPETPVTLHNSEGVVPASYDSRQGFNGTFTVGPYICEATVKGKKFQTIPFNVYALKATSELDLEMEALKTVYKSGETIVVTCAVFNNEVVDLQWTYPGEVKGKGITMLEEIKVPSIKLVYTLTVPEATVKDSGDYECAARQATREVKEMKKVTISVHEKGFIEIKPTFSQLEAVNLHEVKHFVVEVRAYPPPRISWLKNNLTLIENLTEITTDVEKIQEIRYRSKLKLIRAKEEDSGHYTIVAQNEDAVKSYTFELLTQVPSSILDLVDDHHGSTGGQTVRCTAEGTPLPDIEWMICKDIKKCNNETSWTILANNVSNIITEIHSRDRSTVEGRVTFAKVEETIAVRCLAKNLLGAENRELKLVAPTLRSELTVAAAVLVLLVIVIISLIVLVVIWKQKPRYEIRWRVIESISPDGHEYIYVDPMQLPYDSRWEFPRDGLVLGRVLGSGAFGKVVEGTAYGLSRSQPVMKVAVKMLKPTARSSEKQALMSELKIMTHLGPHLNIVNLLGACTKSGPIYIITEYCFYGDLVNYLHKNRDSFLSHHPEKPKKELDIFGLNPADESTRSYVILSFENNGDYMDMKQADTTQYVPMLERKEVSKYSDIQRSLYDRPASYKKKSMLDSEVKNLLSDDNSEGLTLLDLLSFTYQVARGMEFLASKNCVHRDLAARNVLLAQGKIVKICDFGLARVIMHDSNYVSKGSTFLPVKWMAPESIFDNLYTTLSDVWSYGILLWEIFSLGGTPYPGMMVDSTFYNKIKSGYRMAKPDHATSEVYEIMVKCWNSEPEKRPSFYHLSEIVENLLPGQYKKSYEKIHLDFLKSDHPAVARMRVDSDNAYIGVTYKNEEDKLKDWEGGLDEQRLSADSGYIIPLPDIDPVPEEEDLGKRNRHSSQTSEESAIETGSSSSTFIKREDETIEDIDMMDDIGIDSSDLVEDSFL
T5 sequence (Q8IU85 whole entry, species assumed): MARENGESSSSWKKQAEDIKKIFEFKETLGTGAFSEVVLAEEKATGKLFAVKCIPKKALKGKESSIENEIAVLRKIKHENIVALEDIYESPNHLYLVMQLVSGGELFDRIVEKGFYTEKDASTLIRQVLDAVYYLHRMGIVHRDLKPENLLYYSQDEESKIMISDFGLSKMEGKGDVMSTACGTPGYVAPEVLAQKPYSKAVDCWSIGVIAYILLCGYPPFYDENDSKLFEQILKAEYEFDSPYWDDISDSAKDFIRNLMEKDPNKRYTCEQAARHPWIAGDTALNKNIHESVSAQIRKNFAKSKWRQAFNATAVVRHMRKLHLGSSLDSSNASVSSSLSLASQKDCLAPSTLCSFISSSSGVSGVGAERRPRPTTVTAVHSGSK
T25 sequence (P27448 whole entry, species assumed): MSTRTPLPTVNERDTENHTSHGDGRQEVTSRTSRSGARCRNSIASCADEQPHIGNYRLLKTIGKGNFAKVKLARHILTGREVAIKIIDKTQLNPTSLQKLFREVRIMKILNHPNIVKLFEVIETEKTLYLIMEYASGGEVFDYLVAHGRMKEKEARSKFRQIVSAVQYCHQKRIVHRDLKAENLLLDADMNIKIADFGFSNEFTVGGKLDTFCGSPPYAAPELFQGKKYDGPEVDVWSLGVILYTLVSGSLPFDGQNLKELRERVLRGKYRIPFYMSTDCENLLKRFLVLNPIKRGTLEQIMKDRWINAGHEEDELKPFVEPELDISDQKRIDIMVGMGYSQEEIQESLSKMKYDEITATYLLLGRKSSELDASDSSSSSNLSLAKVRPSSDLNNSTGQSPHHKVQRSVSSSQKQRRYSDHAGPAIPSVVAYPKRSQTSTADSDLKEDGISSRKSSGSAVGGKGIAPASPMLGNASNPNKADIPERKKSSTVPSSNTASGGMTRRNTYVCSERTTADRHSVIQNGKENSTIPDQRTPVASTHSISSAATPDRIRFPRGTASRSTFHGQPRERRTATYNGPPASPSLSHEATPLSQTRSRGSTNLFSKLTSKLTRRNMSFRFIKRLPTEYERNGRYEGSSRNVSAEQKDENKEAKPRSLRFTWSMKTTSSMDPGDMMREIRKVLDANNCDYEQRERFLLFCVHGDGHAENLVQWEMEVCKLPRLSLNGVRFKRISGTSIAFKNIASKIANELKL
T8 sequence (O96013 whole entry, species assumed): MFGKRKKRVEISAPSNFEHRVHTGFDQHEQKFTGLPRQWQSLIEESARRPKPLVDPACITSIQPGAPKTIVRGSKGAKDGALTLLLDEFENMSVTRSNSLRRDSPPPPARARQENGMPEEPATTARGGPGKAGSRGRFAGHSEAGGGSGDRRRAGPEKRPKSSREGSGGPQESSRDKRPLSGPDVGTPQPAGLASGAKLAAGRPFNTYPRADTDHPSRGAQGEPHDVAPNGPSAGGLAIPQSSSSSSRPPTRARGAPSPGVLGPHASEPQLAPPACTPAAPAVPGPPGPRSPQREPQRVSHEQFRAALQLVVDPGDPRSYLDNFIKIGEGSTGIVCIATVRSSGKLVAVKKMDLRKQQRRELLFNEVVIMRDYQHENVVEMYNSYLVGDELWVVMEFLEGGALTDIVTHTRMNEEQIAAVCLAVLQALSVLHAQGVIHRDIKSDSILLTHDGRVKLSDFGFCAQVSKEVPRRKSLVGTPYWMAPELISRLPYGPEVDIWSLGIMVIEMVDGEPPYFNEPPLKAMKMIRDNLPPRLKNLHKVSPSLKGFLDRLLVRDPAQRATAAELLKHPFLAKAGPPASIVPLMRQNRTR
T6 sequence (O00141 whole entry, species assumed): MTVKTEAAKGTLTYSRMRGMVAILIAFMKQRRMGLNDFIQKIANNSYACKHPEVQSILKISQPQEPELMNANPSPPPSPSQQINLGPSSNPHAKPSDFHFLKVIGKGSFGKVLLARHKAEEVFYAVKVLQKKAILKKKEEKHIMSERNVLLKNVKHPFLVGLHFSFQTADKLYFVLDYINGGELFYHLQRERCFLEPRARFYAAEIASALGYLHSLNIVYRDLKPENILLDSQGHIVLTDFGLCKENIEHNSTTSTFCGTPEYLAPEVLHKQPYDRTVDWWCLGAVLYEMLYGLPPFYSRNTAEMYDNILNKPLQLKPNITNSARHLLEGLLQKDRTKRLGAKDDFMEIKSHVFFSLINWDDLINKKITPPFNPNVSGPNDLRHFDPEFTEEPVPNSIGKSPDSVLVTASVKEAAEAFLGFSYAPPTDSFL
T16 sequence (P29323 19-1055, species assumed): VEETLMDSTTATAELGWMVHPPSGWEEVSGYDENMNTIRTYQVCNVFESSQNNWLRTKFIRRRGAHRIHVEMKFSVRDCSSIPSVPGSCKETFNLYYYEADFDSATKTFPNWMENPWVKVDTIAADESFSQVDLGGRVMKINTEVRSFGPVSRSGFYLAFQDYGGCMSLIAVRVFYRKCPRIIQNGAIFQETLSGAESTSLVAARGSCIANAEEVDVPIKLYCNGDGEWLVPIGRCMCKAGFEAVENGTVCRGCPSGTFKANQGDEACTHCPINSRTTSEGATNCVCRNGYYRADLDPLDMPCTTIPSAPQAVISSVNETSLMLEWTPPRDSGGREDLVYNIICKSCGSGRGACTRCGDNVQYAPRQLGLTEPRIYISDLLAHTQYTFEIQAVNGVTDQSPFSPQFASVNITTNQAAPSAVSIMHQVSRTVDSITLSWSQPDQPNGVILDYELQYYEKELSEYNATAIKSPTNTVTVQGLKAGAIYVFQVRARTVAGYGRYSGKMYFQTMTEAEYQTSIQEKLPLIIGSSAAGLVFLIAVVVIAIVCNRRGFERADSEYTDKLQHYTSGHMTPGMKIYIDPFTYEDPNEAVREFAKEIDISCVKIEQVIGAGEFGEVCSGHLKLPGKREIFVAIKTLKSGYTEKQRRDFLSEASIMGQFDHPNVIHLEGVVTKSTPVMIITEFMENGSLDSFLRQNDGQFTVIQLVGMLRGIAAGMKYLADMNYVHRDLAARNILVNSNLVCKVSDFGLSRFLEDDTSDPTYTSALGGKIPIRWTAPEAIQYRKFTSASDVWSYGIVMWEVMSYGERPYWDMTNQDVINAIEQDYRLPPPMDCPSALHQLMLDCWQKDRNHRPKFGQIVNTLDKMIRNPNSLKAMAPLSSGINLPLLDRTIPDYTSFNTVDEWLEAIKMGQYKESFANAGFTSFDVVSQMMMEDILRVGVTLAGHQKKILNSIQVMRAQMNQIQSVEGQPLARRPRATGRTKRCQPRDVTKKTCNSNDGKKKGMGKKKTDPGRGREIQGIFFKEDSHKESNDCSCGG
T17 sequence (Q9Y463 whole entry, species assumed): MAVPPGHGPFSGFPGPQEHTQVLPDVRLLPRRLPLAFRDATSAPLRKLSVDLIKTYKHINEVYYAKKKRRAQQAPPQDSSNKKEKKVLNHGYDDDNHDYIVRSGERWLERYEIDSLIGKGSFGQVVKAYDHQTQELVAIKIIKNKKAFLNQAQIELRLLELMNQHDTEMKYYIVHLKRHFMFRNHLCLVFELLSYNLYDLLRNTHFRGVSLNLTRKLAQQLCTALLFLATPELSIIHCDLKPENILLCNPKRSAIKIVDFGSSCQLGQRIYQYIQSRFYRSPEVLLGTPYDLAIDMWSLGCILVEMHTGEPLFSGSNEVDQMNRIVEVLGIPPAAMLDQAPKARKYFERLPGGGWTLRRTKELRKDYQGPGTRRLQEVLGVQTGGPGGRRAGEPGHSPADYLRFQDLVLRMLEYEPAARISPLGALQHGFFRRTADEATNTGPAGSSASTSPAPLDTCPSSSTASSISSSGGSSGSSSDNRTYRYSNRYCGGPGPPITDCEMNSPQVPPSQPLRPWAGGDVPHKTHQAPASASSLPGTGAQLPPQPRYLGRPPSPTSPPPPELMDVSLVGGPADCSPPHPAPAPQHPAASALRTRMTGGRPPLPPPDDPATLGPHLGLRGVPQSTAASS

| Structure (SMILES) | inhibition at 10 µM (MAPKAPK3) [%] | inhibition at 10 µM (PRKCB1) [%] | inhibition at 10 µM (FGFR1) [%] | inhibition at 10 µM (PRKX) [%] | inhibition at 10 µM (CAMK1D) [%] | inhibition at 10 µM (SGK) [%] | inhibition at 10 µM (CDK2) [%] | inhibition at 10 µM (PAK4) [%] | inhibition at 10 µM (IKKB) [%] | inhibition at 10 µM (CHK1) [%] | inhibition at 10 µM (CDK5/P25) [%] | inhibition at 10 µM (PKACA) [%] | inhibition at 10 µM (PRKCQ) [%] | inhibition at 10 µM (TEC) [%] | inhibition at 10 µM (LYNB) [%] | inhibition at 10 µM (EPHB2) [%] | inhibition at 10 µM (DYRK1B) [%] | inhibition at 10 µM (MST1) [%] | inhibition at 10 µM (MST2) [%] | inhibition at 10 µM (RET V804L) [%] | also measured |
| --- | --- | --- | --- | --- | --- | --- | --- | --- | --- | --- | --- | --- | --- | --- | --- | --- | --- | --- | --- | --- | --- |
| CSc1sc(-c2cc[nH]n2)c2c1C(=O)CCC2 [Example 1, 3-(Methylsulfanyl)-1-(1H-pyrazol-3-yl)-6,7-dihydro-2-benzothiophen-4(5H)-one] | 0.1 | -5.1 | 1.9 | -0.6 | -3.1 | -5.1 | 18.4 | 6.1 | 9.3 | 0 | 9.5 | -6 | -0.4 | 0.6 | 8.2 | 2.6 | 40.2 | 7.2 | 12.3 | 41.5 | inhibition at 10 µM (MAPKAPK2): 4.1%; inhibition at 10 µM (TRKC): 10.3%; inhibition at 10 µM (BTK): 3.1%; inhibition at 10 µM (BRSK2): -1.7%; inhibition at 10 µM (LRRK2): 93.9%; inhibition at 10 µM (C-TAK1): 5.3%; inhibition at 10 µM (PDGFRA D842V): 33.9%; inhibition at 10 µM (PRKCG): 10%; inhibition at 10 µM (ROCK2): -3.5%; inhibition at 10 µM (MARK4): -9.4%; inhibition at 10 µM (P38A/SAPK2A T106M): 1.2%; inhibition at 10 µM (FGR): -7.2%; inhibition at 10 µM (PRKCZ): 0.4%; inhibition at 10 µM (JAK2): 19.4%; inhibition at 10 µM (MELK): 11%; inhibition at 10 µM (CAMK2G): 3.1%; inhibition at 10 µM (BMX): -10.9% |
| CC1(C)CC(=O)c2c(SC3CCCC3)sc(-c3cc[nH]n3)c2C1 [Example 7, 3-(Cyclopentylsulfanyl)-6,6-dimethyl-1-(1H-pyrazol-3-yl)-6,7-dihydro-2-benzothiophen-4(5H)-one] | -1 | -3.9 | 7.4 | -6.6 | 4 | -1.3 | 2.1 | -8.9 | 0.5 | 8 | -11.7 | -5.4 | -4.7 | -3.2 | -4.9 | 2.3 | 4.7 | -3 | -2.3 | 15.7 | inhibition at 10 µM (MAPKAPK2): 2%; inhibition at 10 µM (TRKC): 0.5%; inhibition at 10 µM (BTK): 4.8%; inhibition at 10 µM (BRSK2): -11.1%; inhibition at 10 µM (LRRK2; LRRK2, tested at 10 uM): 83.1%; inhibition at 10 µM (C-TAK1): 4.7%; inhibition at 10 µM (PDGFRA D842V): 3.7%; inhibition at 10 µM (PRKCG): 2.3%; inhibition at 10 µM (ROCK2): 0.9%; inhibition at 10 µM (MARK4): 11.6%; inhibition at 10 µM (P38A/SAPK2A T106M): 3.7%; inhibition at 10 µM (FGR): -1.6%; inhibition at 10 µM (PRKCZ): 0.5%; inhibition at 10 µM (JAK2): 5.3%; inhibition at 10 µM (MELK): 7.3%; inhibition at 10 µM (CAMK2G): 4.4%; inhibition at 10 µM (BMX): -30.7% |
